Patent publication US12697289B2, “Organic ricinoleate salts as deodorizing agents” (COLONIAL CHEMICAL, INC., priority 2022, dated 2026)

Test: Deodorization evaluation with GASTEC gas detector tubes (24 hour acetic acid deodorization study)
Settings: FIG. 1; GASTEC Detector Tube method; 24 hour equilibration; comparison with industry standard Cola®Quat SME
Description: Deodorization Evaluations with GASTEC Gas Detector Tubes.
The Gas Sampling Pump Kit (GV-100S) and Gas detection tubes are manufactured by GasTec International and purchased through New Star Environmental. The pump provided in the gas sampling pump kit provides a precise vacuum on the tubes and therefore a specific volume of gas. Tubes are pre-calibrated for specific molecules, have a ppm scale on the tube, and show a color change when reacting to the target odor causing molecule. There may be corrections for temperature, humidity, or specific target molecules.
Our exemplary, general method was as follows: • 1. […] Prepare the odorant solution for the experiment. • The concentration will need to be workshopped for each odorant molecule to give an appropriate “untreated” ppm reading • 5. […]
Additionally, the method attempts to control the volume of odorant solution, volume of deodorant solution, total liquid volume, surface area of liquid, volume of headspace, and equilibration time. Ambient temperature and humidity are recorded at the start of equilibration and at the time of measurement. […] The temperature used if correction is necessary is the temperature recorded at measurement. The humidity used if correction is necessary is the humidity recorded before equilibration as this should be the main component of the humidity variations between experiments. […]

Soyamidopropyl Morpholine Ricinoleate
reducing odor vapors from acetic acid, compared to Cola®Quat SME standard: compare favorably

soyamidopropyl dimethylamine ricinoleate
reducing odor vapors from acetic acid, compared to Cola®Quat SME standard: compare favorably
